Reference: article PMC8273128 (ACS infectious diseases, 2021)

Columns and labels:
SmTGR-U597C = SmTGR-U597C (Schistosoma mansoni, UniProt Q962Y6); assay: X-ray crystallography fragment soaking and co-crystallization; format: binding; conditions: crystal structure of SmTGR-U597C, soaking or co-crystallization
SmTGR WT [1] = target: T1, SmTGR WT (Schistosoma mansoni, UniProt Q962Y6); assay: biochemical
SmTGR WT [2] = target: T1, SmTGR WT; assay: Steady-state competition experiments versus NADPH; format: biochemical; conditions: upon increasing compound concentration from 0 to 3 mM
SmTGR-E330A/D334A = SmTGR-E330A/D334A (Schistosoma mansoni, UniProt Q962Y6, D334A/E330A); assay: DTNB assay on SmTGR-E330A/D334A double mutant; format: biochemical; conditions: 500 μM compound
SmTGR-E337A = target: T2, SmTGR-E337A (Schistosoma mansoni, UniProt Q962Y6, E337A); assay: biochemical
T2 sequence (Q962Y6 1-598 E337A): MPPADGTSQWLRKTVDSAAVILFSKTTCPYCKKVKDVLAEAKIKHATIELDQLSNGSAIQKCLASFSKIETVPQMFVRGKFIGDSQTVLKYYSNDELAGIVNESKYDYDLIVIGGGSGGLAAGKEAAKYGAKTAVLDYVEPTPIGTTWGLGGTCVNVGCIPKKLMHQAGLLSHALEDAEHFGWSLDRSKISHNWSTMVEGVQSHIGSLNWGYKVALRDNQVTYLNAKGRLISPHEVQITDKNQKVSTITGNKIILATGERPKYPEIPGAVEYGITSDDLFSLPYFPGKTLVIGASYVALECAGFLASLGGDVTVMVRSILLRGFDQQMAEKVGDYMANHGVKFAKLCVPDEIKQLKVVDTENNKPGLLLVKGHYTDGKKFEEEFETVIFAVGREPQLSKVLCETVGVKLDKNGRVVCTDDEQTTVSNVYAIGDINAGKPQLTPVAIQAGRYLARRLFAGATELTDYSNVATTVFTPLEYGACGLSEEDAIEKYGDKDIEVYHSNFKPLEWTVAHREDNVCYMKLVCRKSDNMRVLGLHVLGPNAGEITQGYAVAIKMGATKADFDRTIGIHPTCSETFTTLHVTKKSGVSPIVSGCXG

| Structure (SMILES) | Binding site (SmTGR-U597C) | IC50 (SmTGR WT [1]) | decrease of Vmax (SmTGR WT [2]) | inhibition at 500 µM (SmTGR WT [1]; read-out: % of inhibition at 500 μM) | percentage of inhibition at 500 μM (SmTGR-E330A/D334A) | IC50 (SmTGR-E337A) |
| --- | --- | --- | --- | --- | --- | --- |
| COc1nc2ccccc2nc1CCC(=O)O [Compound 1, 3-(3-methoxyquinoxalin-2-yl)propanoic acid] | Site 1 (both insoakingand in co-crystallization experiments) | > 3000 µM | – | – | – | – |
| Cc1[nH]c2ccccc2c1CC(=O)O [Compound 2, 2-methylindole-3-acetic acid] | Site 1 | > 1000 µM | ~ 10% | – | – | – |
| Nc1cccc2nsnc12 [Compound 3, 4-aminopiazthiole] | Site 2 | ~500 µM | – | 51.4 ± 4.1% | 48.1 ± 6.2% | – |
| OCc1c[nH]c2ccccc12 [Compound 4, indole-3-carbinol] | Site 2 | 284 ± 12 µM | – | – | – | 283 ± 15 µM |
| Cc1ccc2c(O)c(C(=O)O)cnc2n1 [Compound 5, 4-hydroxy-7-methyl-1,8-naphthyridine-3-carboxylic acid] | Site 3 | – | – | – | – | – |
